Where a name gives a salt, the structure may show the parent alone. Read-outs that look alike come from different tables or passages of the source.
Experiments:
[1] = Solubility of salts in distilled deionized water (HPLC); assay type: physicochemical
Experimental: The formulator can determine the solubility of the pharmaceutically acceptable salts of the disclosed inhibitors by any method desirable. The following is a non-limiting example of a procedure for evaluating the solubility of a salt of a disclosed inhibitor. A suspension of tert-butyl-{[1-(4-chlorobenzyl)-3-hydroxy-2-oxo-1,2-dihydropyridin-4-yl]methyl}-piperazine-1-carboxylate methanesulfonate (26.6 mg) in distilled deionized water (3.0 mL) is sonicated for 20 min with water bath temperature under 25° C. The suspension is filtered to remove any insoluble salt. The clear filtrate solution (200 μL) is diluted with distilled deionized water (800 μL) and subjected to HPLC analysis. The following are results for the pharmaceutically acceptable salts outlined in Table VII above.

[2] = test system: Mouse Colon 26 tumor cells; test: Xenograft model: Mouse Colon 26 carcinoma in nude mice; assay type: in vivo; conditions: Group 1: 5-FU 10 mg/kg IV once daily for five days alone; Day 27
Experimental: Xenograft Model: Mouse Colon 26 Carcinoma
Nude mice (Harlan Sprague Dawley, Inc., Indianapolis Ind.) were inoculated subcutaneously in the right flank with 0.1 mL of a 0.9% NaCl mixture containing a suspension of Mouse Colon 26 tumor cells (approx. 1×10^6 cells/mouse). Nine days following inoculation, the resulting tumors were measured using vernier calipers and tumor weight was calculated using the formula:
[formula] wherein the width can be taken as the smallest diameter and the length the largest diameter of the tumor. Twenty-four mice having tumors in the range of 75-144 mg were then selected. The mice were randomized into three groups of eight mice each. The body weight of each animal was at taken when the mice were pair-matched on day one and recorded. Body weights were then taken twice weekly thereafter in conjunction with tumor measurements. See Britten C. D. et al., “Enhanced antitumor activity of 6-hydroxymethyl-acylfulvene in combination with irinotecan and 5-fluorouracil in the HT29 human colon tumor xenograft model.” Cancer Res 1999; 59:1049-53, incorporated by reference herein in its entirety.
Beginning on Day 1, 5-fluorouracil (5-FU) was administered intravenously once daily for five days to each animal (Groups 1-3). […] The actual weight of each tumor was recorded.

SMILES	Solubility [1] [µg/mL]	further results
CC(C)(C)OC(=O)N1CCN(Cc2ccn(Cc3ccc(Cl)cc3)c(=O)c2O)CC1 [Compound A41, tert-Butyl-{[1-(4-chlorobenzyl)-3-hydroxy-2-oxo-1,2-dihydropyridin-4-yl]methyl}piperazine-1-carboxylate]	–	Solubility ([1]; distilled deionized water, sonicated 20 min, bath under 25° C., filtrate by HPLC, listed as Free base): ~1 µg/mL
CC(C)(C)OC(=O)N1CCN(Cc2ccn(Cc3ccc(Cl)cc3)c(=O)c2O)CC1 [p-toluenesulfonate, tert-butyl-{[1-(4-chlorobenzyl)-3-hydroxy-2-oxo-1,2-dihydropyridin-4-yl]methyl}-piperazine-1-carboxylate]	2300	–
O=c1[nH]cc(F)c(=O)[nH]1 [Compound 5-FU, 5-fluorouracil]	–	Tumor Wgt. [2]: 1926.9 ± 284.9 mg
CC(C)(C)OC(=O)N1CCN(Cc2ccn(Cc3ccc(Cl)cc3)c(=O)c2O)CC1 [hydrochloride, tert-butyl-{[1-(4-chlorobenzyl)-3-hydroxy-2-oxo-1,2-dihydropyridin-4-yl]methyl}-piperazine-1-carboxylate]	5900	–
